≈ marks a conversion by molar mass, not a printed value. Where “and” joins values, the source holds several entries; their conditions need not be identical. Equal entries are not always repeated. Where two headings read alike, the source gives them in different places.
Tested on: Escherichia coli (E. coli) strain CFT073 ATCC 700928
Format: cell-based
Protocol: In vitro antimicrobial activity of each compound was determined by measuring minimal inhibitor concentrations (MICs) using the broth micro-dilution technique as approved by the Clinical and Laboratory Standards Institute (CLSI) (Methods for Dilution Antimicrobial Susceptibility Tests for Bacteria that Grow Aerobically; Approved Standard—Eighth Edition. CLSI document M07-A8. Wayne, Pa.: Clinical and Laboratroy Standards; 2009). Antibacterial activity was measure against Escherichia coli (E. coli) strain CFT073 ATCC 700928, which is a clinically relevant Gram-negative strain. Cells were inoculated onto plates of Mueller Hinton Agar and grown at 37° C. for 16-18 hours. Inocula suspensions were prepared by scraping cells into 1 mL of testing media (Mueller Hinton II cation adjusted Broth supplemented with 0.002% v/v Tween-80) and diluting to a final OD600 nm of 0.01.
Test compounds were prepared in DMSO at a concentration of 100 uM The compounds were tested under several different dilution formats and the data are reported in Tables 6, 7 and 8. In protocol 1, the compound stocks were diluted into testing media at a concentration of 64 μg/ml and serial 2-fold dilutions were made in the same media, in 96-well U bottom microtiter dishes, for a total of 10 compound concentrations. In protocol 2, the compound stocks were diluted into testing media at a concentration of 4 μg/mL and serial 2-fold dilutions were made in the same media, in 96-well U bottom microtiter dishes, for a total of 10 compound concentrations. In protocol 3, compound stocks were diluted into testing media at a concentration of 0.5 μg/mL, with serial 2-fold dilutions conducted as described above. In protocol 4, compound stocks were diluted into testing media at a concentration of 0.13 μg/mL, with serial 2-fold dilutions conducted as described above. Inocula suspensions were added to the 2-fold serial dilutions of test compounds to a final density of OD OD600 nm of 0.0005 and incubated at 35° C. for 22 hours.

SMILES	MIC (ATCC 700928, 22 h) [µM]	MIC (E. coli CFT073 ATCC 700928, Mueller Hinton II cation adjusted Broth with 0.002% v/v Tween-80, 35° C. for 22 hours, lowest concentration that completely prevented bacterial growth)
CCCCCCCCCC[C@H]1OC(=O)CNC(=O)[C@H]([C@H](C)O)NC(=O)[C@H](CN)NC(=O)[C@H]([C@H](C)CC)NC(=O)C(CCC(F)(F)F)N(C)C(=O)[C@@H]1C (single isomer, unassigned) [Example 17, 9-(aminomethyl)-19-decyl-6-(1-hydroxyethyl)-16,18-dimethyl-12-sec-butyl-15-(3,3,3-trifluoropropyl)-1-oxa-4,7,10,13,16-pentazacyclononadecane-2,5,8,11,14,17-hexone]	25 (≈ 18.8 µg/mL)	
CCCCCC[C@H]1OC(=O)CNC(=O)[C@H]([C@H](C)O)NC(=O)[C@H](CN)NC(=O)[C@H](C2CCC(F)(F)CC2)NC(=O)[C@H](CC(C)C)N(C)C(=O)[C@@H]1C (single isomer, unassigned) [Example 52]	12 (≈ 8.6 µg/mL)	
CCCCCCCCCC[C@H]1OC(=O)CNC(=O)[C@H]([C@H](C)O)NC(=O)[C@H](CN)NC(=O)[C@H](C2CCC(F)(F)CC2)NC(=O)[C@H](CC(C)C)N(C)C(=O)[C@@H]1C (single isomer, unassigned) [Example 53]	25 (≈ 19.3 µg/mL)	
CCCCCC[C@H]1OC(=O)CNC(=O)[C@H]([C@H](C)O)NC(=O)[C@H](CN)NC(=O)C(C2CC3CCC2C3)NC(=O)[C@H](CCC)N(C)C(=O)[C@@H]1C (single isomer, unassigned) [Example 69]	8.8 (≈ 5.97 µg/mL)	
CCC[C@H]1C(=O)N[C@@H](C2CCCCCC2)C(=O)N[C@@H](CN)C(=O)N[C@@H](COC2CC3(CC(N)C3)C2)C(=O)N[C@H](C)CO[C@H](CC2CC3(CCC3)C2)[C@@H](C)C(=O)N1C (single isomer, unassigned; stereoisomer 1) [Example 166]	1.1 (≈ 0.88 µg/mL)	
CCC[C@H]1C(=O)N[C@@H](C2CCCCCC2)C(=O)N[C@@H](CN)C(=O)N[C@@H](COC2CC3(CC(N)C3)C2)C(=O)N[C@H](C)CO[C@H](CC2CC3(CCC3)C2)[C@@H](C)C(=O)N1C (single isomer, unassigned; stereoisomer 2) [Example 170]	0.78 (≈ 0.624 µg/mL)	
CCCCCC[C@@H]1OC(=O)CNC(=O)[C@H](CNC(=O)C2CCNCC2)NC(=O)[C@H](CN)NC(=O)[C@H](C2CCCCC2)NC(=O)[C@H](CC(C)C)N(C)C(=O)[C@@H]1C (stereo in doubt) [Example 155]	18 (≈ 14 µg/mL)	
CCCCCCC1OC(=O)CNC(=O)[C@H](CNC(=O)Cn2ccnc2)NC(=O)[C@H](CN)NC(=O)[C@H](C2CCCCC2)NC(=O)[C@H](CC(C)C)N(C)C(=O)[C@@H]1C (stereo in doubt) [Example 160, N-[[(6S,9S,12S,15S,18R,19R)-9-(Aminomethyl)-12-cyclohexyl-19-hexyl-15-isobutyl-16,18-dimethyl-2,5,8,11,14,17-hexaoxo-1-oxa-4,7,10,13,16-pentazacyclononadec-6-yl]methyl]-2-imidazol-1-yl-acetamide]	71 (≈ 55 µg/mL)	
CCCCCCC1OC(=O)CNC(=O)[C@H](CNC(=O)C2CC3(CNC3)C2)NC(=O)[C@H](CN)NC(=O)[C@H](C2CCCCC2)NC(=O)[C@H](CC(C)C)N(C)C(=O)[C@@H]1C (stereo in doubt) [Example 165, N-[[(6S,9S,12S,15S,18R,19R)-9-(Aminomethyl)-12-cyclohexyl-19-hexyl-15-isobutyl-16,18-dimethyl-2,5,8,11,14,17-hexaoxo-1-oxa-4,7,10,13,16-pentazacyclononadec-6-yl]methyl]-2-azaspiro[3.3]heptane-6-carboxamide]	4.4 (≈ 3.47 µg/mL)	
CCCCCCCCCC[C@H]1OC(=O)CNC(=O)[C@H]([C@H](C)O)NC(=O)[C@H](CN)NC(=O)[C@H]([C@H](C)CC)NC(=O)[C@H](CC(C)C)N(C)C(=O)[C@@H]1C [Example 1, (6S,9S,12S,15S,18R,19R)-9-(aminomethyl)-12-((R)-sec-butyl)-19-decyl-6-((S)-1-hydroxyethyl)-15-isobutyl-16,18-dimethyl-1-oxa-4,7,10,13,16-pentaazacyclononadecane-2,5,8,11,14,17-hexaone]	3.1 (≈ 2.2 µg/mL)	
CCCCCCCCCC[C@H]1OC(=O)CNC(=O)[C@H]([C@H](C)O)NC(=O)[C@H](CN)NC(=O)[C@H]([C@H](C)CC)NC(=O)[C@H](CC2CC2)N(C)C(=O)[C@@H]1C [Example 2, (6S,9S,12S,15S,18R,19R)-9-(aminomethyl)-12-((R)-sec-butyl)-15-(cyclopropylmethyl)-19-decyl-6-((S)-1-hydroxyethyl)-16,18-dimethyl-1-oxa-4,7,10,13,16-pentaazacyclononadecane-2,5,8,11,14,17-hexaone]	3.1 (≈ 2.2 µg/mL)	
CCCCCCCCCC[C@H]1OC(=O)[C@H](C)NC(=O)[C@H]([C@H](C)O)NC(=O)[C@H](CN)NC(=O)[C@H]([C@H](C)CC)NC(=O)[C@H](CC(C)C)N(C)C(=O)[C@@H]1C [Example 3, (3S,6S,9S,12S,15S,18R,19R)-9-(aminomethyl)-12-((R)-sec-butyl)-19-decyl-6-((S)-1-hydroxyethyl)-15-isobutyl-3,16,18-trimethyl-1-oxa-4,7,10,13,16-pentaazacyclononadecane-2,5,8,11,14,17-hexaone]	3.1 (≈ 2.25 µg/mL)	
CCCCCCCCCC[C@H]1OC(=O)[C@@H](C)NC(=O)[C@H]([C@H](C)O)NC(=O)[C@H](CO)NC(=O)[C@H]([C@@H](C)CC)NC(=O)[C@H](CC(C)C)N(C)C(=O)[C@@H]1C [Example 4, (3R,6S,9S,12S,15S,18R,19R)-12-((S)-sec-butyl)-19-decyl-6-((S)-1-hydroxyethyl)-9-(hydroxymethyl)-15-isobutyl-3,16,18-trimethyl-1-oxa-4,7,10,13,16-pentaazacyclononadecane-2,5,8,11,14,17-hexaone]	13 (≈ 9.44 µg/mL)	
CCCCCCCCCC[C@H]1OC(=O)CNC(=O)[C@H](CO)NC(=O)[C@H](CO)NC(=O)[C@H]([C@H](C)CC)NC(=O)[C@H](CC(C)C)N(C)C(=O)[C@@H]1C [Example 5, (6S,9S,12S,15S,18R,19R)-12-((R)-sec-butyl)-19-decyl-6,9-bis(hydroxymethyl)-15-isobutyl-16,18-dimethyl-1-oxa-4,7,10,13,16-pentaazacyclononadecane-2,5,8,11,14,17-hexaone]		4.7 µM and 3.1 µM
CCCCCCCCCC[C@H]1OC(=O)CNC(=O)[C@H](CO)NC(=O)[C@H](CO)NC(=O)[C@H](C2CCCCC2)NC(=O)[C@H](CC(C)C)N(C)C(=O)[C@@H]1C [Example 7, (6S,9S,12S,15S,18R,19R)-12-cyclohexyl-19-decyl-6,9-bis(hydroxymethyl)-15-isobutyl-16,18 dimethyl-1-oxa-4,7,10,13,16-pentazacyclononadecane-2,5,8,11,14,17-hexone]	3.1 (≈ 2.24 µg/mL)	
CCCCCCC[C@H]1OC(=O)CNC(=O)[C@H]([C@H](C)O)NC(=O)[C@H](CO)NC(=O)[C@H]([C@H](C)CC)NC(=O)[C@H](CC(C)C)N(C)C(=O)[C@@H]1CC [Example 8, (6S,9S,12S,15S,18R,19R)-12-((R)-sec-Butyl)-18-ethyl-9-heptyl-6-((S)-1-hydroxyethyl)-9-(hydroxymethyl)-15-isobutyl-16-methyl-1-oxa-4,7,10,13,16-pentaazacyclononadecane-2,5,8,11,14,17-hexaone]	25 (≈ 17.1 µg/mL)	
CCCCCC[C@H]1OC(=O)CNC(=O)[C@H]([C@H](C)O)NC(=O)[C@H](CO)NC(=O)[C@H]([C@H](C)CC)NC(=O)[C@H](CC(C)C)N(C)C(=O)[C@@H]1CCCc1ccc(C)cc1 [Example 9, (6S,9S,12S,15S,18R,19R)-12-((R)-sec-butyl)-19-hexyl-6-((S)-1-hydroxyethyl)-9-(hydroxymethyl)-15-isobutyl-16-methyl-18-(3-(p-tolyl)propyl)-1-oxa-4,7,10,13,16-pentaazacyclononadecane-2,5,8,11,14,17-hexaone]	6.3 (≈ 4.88 µg/mL)	
CCCCCCCCCC[C@H]1OC(=O)CNC(=O)[C@H](CCO)NC(=O)[C@H](CN)NC(=O)[C@H]([C@H](C)CC)NC(=O)[C@H](CC(C)C)N(C)C(=O)[C@@H]1C [Example 10, (6S,9S,12S,15S,18R,19R)-9-(aminomethyl)-19-decyl-6-(2-hydroxyethyl)-15-isobutyl-16,18-dimethyl-12-[(1R)-1-methylpropyl]-1-oxa-4,7,10,13,16-pentazacyclononadecane-2,5,8,11,14,17-hexone]	6.3 (≈ 4.48 µg/mL)	
CCCCCC[C@H]1OC(=O)CNC(=O)[C@H](CO)NC(=O)[C@H](CN)NC(=O)[C@H]([C@H](C)CC)NC(=O)[C@H](CC(C)C)N(C)C(=O)[C@@H]1C [Example 11, (6S,9S,12S,15S,18R,19R)-9-(aminomethyl)-19-hexyl-6-(hydroxymethyl)-15-isobutyl-16,18-dimethyl-12-[(1R)-1-methylpropyl]-1-oxa-4,7,10,13,16-pentazacyclononadecane-2,5,8,11,14,17-hexone]	25 (≈ 16 µg/mL)	
CCCCCCCCCC[C@H]1OC(=O)CNC(=O)[C@H](CO)NC(=O)[C@H](CN)NC(=O)[C@H]([C@H](C)CC)NC(=O)[C@H](CC(C)C)N(C)C(=O)[C@@H]1C [Example 12, (6S,9S,12S,15S,18R,19R)-9-(aminomethyl)-19-decyl-6-(hydroxymethyl)-15-isobutyl-16,18-dimethyl-12-[(1R)-1-methylpropyl]-1-oxa-4,7,10,13,16-pentazacyclononadecane-2,5,8,11,14,17-hexone]	4.7 (≈ 3.28 µg/mL)	
